Assay results: US12139492B2 (Endotarget Inc., priority 2021, dated 2024)
Read-outs that look alike come from different tables or passages of the source.

Columns and labels:
BTK = BTK (Homo sapiens, UniProt Q06187); test: Degradation of BTK protein in Namalwa cells (Western blot; DC50, Dmax); details: for DC50: cell line not given; for degradation of BTK protein: Namalwa B lymphocyte cells, various concentrations, 24 hours, Western blot
JeKo-1 cells = test: Antiproliferative effect, MTS cell viability assay, JeKo-1 cells; type: cell-based; details: Homo sapiens; JeKo-1 mantle cell lymphoma cells; read-out: IC50 (anti-proliferation) JeKO-1 cells
Outline: (§1)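 MTS read-out, A490 of formazan from metabolically active cells; compound 0–10 μM (0, 0.001, 0.01, 0.1, 1, 10 μM), 72 h exposure.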

Mino cells = test: Antiproliferative effect, MTS cell viability assay, Mino cells; type: cell-based; details: Homo sapiens, Mino mantle cell lymphoma cells, read-out: IC50 (anti-proliferation) Mino cells
Outline: as §1

[1] = read-out: DC50 (BTK degradation), concentration giving 50% reduction of BTK expression level
[2] = read-out: Dmax (BTK degradation)

Chain of BTK (Q06187 whole entry): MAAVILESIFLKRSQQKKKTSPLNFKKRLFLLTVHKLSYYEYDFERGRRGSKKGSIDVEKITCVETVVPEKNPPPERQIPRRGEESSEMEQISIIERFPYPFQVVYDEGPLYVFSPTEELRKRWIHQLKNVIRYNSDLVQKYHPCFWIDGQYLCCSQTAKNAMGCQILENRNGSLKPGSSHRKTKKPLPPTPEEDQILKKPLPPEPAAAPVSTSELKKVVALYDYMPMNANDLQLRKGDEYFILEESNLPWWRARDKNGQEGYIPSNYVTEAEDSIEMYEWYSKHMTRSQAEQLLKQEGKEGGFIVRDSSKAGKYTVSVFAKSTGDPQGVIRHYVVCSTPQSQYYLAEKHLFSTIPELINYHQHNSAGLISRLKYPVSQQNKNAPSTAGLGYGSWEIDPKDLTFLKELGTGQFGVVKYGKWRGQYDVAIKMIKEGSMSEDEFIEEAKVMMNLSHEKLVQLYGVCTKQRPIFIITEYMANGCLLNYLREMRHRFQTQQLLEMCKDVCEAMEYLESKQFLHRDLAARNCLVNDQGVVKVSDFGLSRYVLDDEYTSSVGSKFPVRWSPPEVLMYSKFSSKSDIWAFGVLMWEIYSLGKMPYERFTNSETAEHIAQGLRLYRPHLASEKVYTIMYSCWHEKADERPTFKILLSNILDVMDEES

Dmax (BTK) [%]	DC50 (BTK; BTK degradation) [nM]	DC50 (BTK; [1]) [nM]	Dmax (BTK; [2]) [%]	SMILES	IC50 (JeKo-1 cells) [nM]	IC50 (Mino cells; MINO) [nM]	degradation of BTK protein (BTK)	IC50 (Mino cells) [nM]
> 75	10 to 50			Nc1ncnc2c1c(-c1ccc(Oc3ccccc3)cc1)nn2C1CCN(C2CCN(CCCN3CCC(c4ccc5c(c4)C(=O)N(C4CCC(=O)NC4=O)C5=O)CC3)CC2)CC1 (centres unmarked) [Compound 223, 5-(1-(3-(4-(4-amino-3-(4-phenoxyphenyl)-1H-pyrazolo[3,4-d]pyrimidin-1-yl)-[1,4′-bipiperidin]-1′-yl)propyl)piperidin-4-yl)-2-(2,6-dioxopiperidin-3-yl)isoindoline-1,3-dione]	1000 to 10000	1000 to 10000		
> 90	10 to 50			Nc1ncnc2c1c(-c1ccc(Oc3ccccc3)cc1)nn2C1CCN(C2CCN(C(=O)N3CCC(CCN4CCN(c5ccc6c(c5)C(=O)N(C5CCC(=O)NC5=O)C6=O)CC4)CC3)CC2)CC1 (centres unmarked) [Compound 251, 5-(4-(2-(1-(4-(4-amino-3-(4-phenoxyphenyl)-1H-pyrazolo[3,4-d]pyrimidin-1-yl)-[1,4′-bipiperidine]-1′-carbonyl)piperidin-4-yl)ethyl)piperazin-1-yl)-2-(2,6-dioxopiperidin-3-yl)isoindoline-1,3-dione]	1000 to 10000	< 1000		
> 90	10 to 50			NC(=O)c1c(-c2ccc(Oc3ccccc3)cc2)nn2c1NCCC2C1CCN(CC2CCN(C(=O)N3CCN(C4CCN(c5ccc6c(c5)C(=O)N(C5CCC(=O)NC5=O)C6=O)CC4)CC3)CC2)CC1 (centres unmarked) [Compound 361, 7-(1-((1-(4-(1-(2-(2,6-dioxopiperidin-3-yl)-1,3-dioxoisoindolin-5-yl)piperidin-4-yl)piperazine-1-carbonyl)piperidin-4-yl)methyl)piperidin-4-yl)-2-(4-phenoxyphenyl)-4,5,6,7-tetrahydropyrazolo[1,5-a]pyrimidine-3-carboxamide]	1000 to 10000	1000 to 10000		
		10 to 50	> 75	Nc1ncnc2c1c(-c1ccc(Oc3ccccc3)cc1)nn2C1CCN(CCOCCOCCN2CC=C(c3ccc4c(c3)CN(C3CCC(=O)NC3=O)C4=O)CC2)CC1 (centres unmarked) [Compound 417, 3-(5-(1-(2-(2-(2-(4-(4-amino-3-(4-phenoxyphenyl)-1H-pyrazolo[3,4-d]pyrimidin-1-yl)piperidin-1-yl)ethoxy)ethoxy)ethyl)-1,2,3,6-tetrahydropyridin-4-yl)-1-oxoisoindolin-2-yl)piperidine-2,6-dione]	1000 to 10000	1000 to 10000	dose-dependent degradation	
> 90	10 to 50			NC(=O)c1c(-c2ccc(Oc3ccccc3)cc2)nn2c1NCC[C@H]2C1CCN(C2CCN(CCC3CCN(c4ccc5c(c4)CN(C4CCC(=O)NC4=O)C5=O)CC3)CC2)CC1 (stereo partly drawn) [Compound 326, (7S)-7-(1′-(2-(1-(2-(2,6-dioxopiperidin-3-yl)-1-oxoisoindolin-5-yl)piperidin-4-yl)ethyl)-[1,4′-bipiperidin]-4-yl)-2-(4-phenoxyphenyl)-4,5,6,7-tetrahydropyrazolo[1,5-a]pyrimidine-3-carboxamide]	1000 to 10000	1000 to 10000		
> 90	10 to 50			NC(=O)c1c(-c2ccc(Oc3ccccc3)cc2)nn2c1NCC[C@H]2C1CCN(C(=O)N2CCN(CC3CCN(c4ccc5c(c4)C(=O)N(C4CCC(=O)NC4=O)C5=O)CC3)CC2)CC1 (stereo partly drawn) [Compound 289, (7S)-7-(1-(4-((1-(2-(2,6-dioxopiperidin-3-yl)-1,3-dioxoisoindolin-5-yl)piperidin-4-yl)methyl)piperazine-1-carbonyl)piperidin-4-yl)-2-(4-phenoxyphenyl)-4,5,6,7-tetrahydropyrazolo[1,5-a]pyrimidine-3-carboxamide]	< 1000	1000 to 10000		
> 90	10 to 50			NC(=O)c1c(-c2ccc(Oc3ccccc3)cc2)nn2c1NCCC2C1CCN(CC2CCN(CC3CCN(c4ccc5c(c4)C(=O)N(C4CCC(=O)NC4=O)C5=O)CC3)CC2)CC1 (centres unmarked) [Compound 313, 7-(1-((1-((1-(2-(2,6-dioxopiperidin-3-yl)-1,3-dioxoisoindolin-5-yl)piperidin-4-yl)methyl)piperidin-4-yl)methyl)piperidin-4-yl)-2-(4-phenoxyphenyl)-4,5,6,7-tetrahydropyrazolo[1,5-a]pyrimidine-3-carboxamide]	1000 to 10000	1000 to 10000		
> 90	10 to 50			NC(=O)c1c(-c2ccc(Oc3ccccc3)cc2)nn2c1NCCC2C1CCN(CC2CCN(CCN3CCC(c4ccc5c(c4)CN(C4CCC(=O)NC4=O)C5=O)CC3)CC2)CC1 (centres unmarked) [Compound 320, 7-(1-((1-(2-(4-(2-(2,6-dioxopiperidin-3-yl)-1-oxoisoindolin-5-yl)piperidin-1-yl)ethyl)piperidin-4-yl)methyl)piperidin-4-yl)-2-(4-phenoxyphenyl)-4,5,6,7-tetrahydropyrazolo[1,5-a]pyrimidine-3-carboxamide]	1000 to 10000	1000 to 10000		
		> 50	> 90	Nc1ncnc2c1c(-c1ccc(Oc3ccccc3)cc1)nn2C1CCN(C[C@@H]2CCN(CC3CN(CC4CN(c5ccc6c(c5)C(=O)N(C5CCC(=O)NC5=O)C6=O)C4)C3)C2)CC1 (stereo partly drawn) [Compound 427b, 5-(3-((3-(((S)-3-((4-(4-amino-3-(4-phenoxyphenyl)-1H-pyrazolo[3,4-d]pyrimidin-1-yl)piperidin-1-yl)methyl)pyrrolidin-1-yl)methyl)azetidin-1-yl)methyl)azetidin-1-yl)-2-(2,6-dioxopiperidin-3-yl)isoindoline-1,3-dione]	1000 to 10000	1000 to 10000		
> 75	10 to 50			Nc1ncnc2c1c(-c1ccc(Oc3ccccc3)cc1)nn2C1CCN(C2CCN(CCC3CCN(c4ccc5c(c4)C(=O)N(C4CCC(=O)NC4=O)C5=O)CC3)CC2)CC1 (centres unmarked) [Compound 215, 5-(4-(2-(4-(4-amino-3-(4-phenoxyphenyl)-1H-pyrazolo[3,4-d]pyrimidin-1-yl)-[1,4′-bipiperidin]-1′-yl)ethyl)piperidin-1-yl)-2-(2,6-dioxopiperidin-3-yl)isoindoline-1,3-dione]	< 1000	1000 to 10000		
> 75	> 50			NC(=O)c1c(-c2ccc(Oc3ccccc3)cc2)nn2c1NCC[C@H]2C1CCN(CC2CCN(CCN3CCC(c4ccc5c(c4)C(=O)N(C4CCC(=O)NC4=O)C5=O)CC3)CC2)CC1 (stereo partly drawn) [Compound 335, (7S)-7-(1-((1-(2-(4-(2-(2,6-dioxopiperidin-3-yl)-1,3-dioxoisoindolin-5-yl)piperidin-1-yl)ethyl)piperidin-4-yl)methyl)piperidin-4-yl)-2-(4-phenoxyphenyl)-4,5,6,7-tetrahydropyrazolo[1,5-a]pyrimidine-3-carboxamide]	1000 to 10000	1000 to 10000		

SMILES	Dmax (BTK) [%]	DC50 (BTK; BTK degradation) [nM]	DC50 (BTK; [1]) [nM]	Dmax (BTK; [2]) [%]	IC50 (JeKo-1 cells) [nM]	IC50 (Mino cells; MINO) [nM]	degradation of BTK protein (BTK)	IC50 (Mino cells) [nM]
Nc1ncnc2c1c(-c1ccc(Oc3ccccc3)cc1)nn2C1CCN(C2CCN(CC3CCN(c4ccc5c(c4)CN(C4CCC(=O)NC4=O)C5=O)CC3)CC2)CC1 (centres unmarked) [Compound 214]	< 50	> 50			1000 to 10000		dose-dependent degradation	1000 to 10000
